Tests used:
[1] = target: Small ribosomal subunit protein mS23 (Homo sapiens) (UniProt Q9Y3D9); further: assay method not described here
[2] = target: General transcription and DNA repair factor IIH helicase subunit XPD (Homo sapiens) (UniProt P18074); further: assay method not described here
[3] = target: Protein THEM6 (Homo sapiens) (UniProt Q8WUY1); further: assay method not described here
[4] = target: Dolichyl-diphosphooligosaccharide--protein glycosyltransferase subunit STT3A (Homo sapiens) (UniProt P46977); further: assay method not described here
[5] = target: Serine/threonine-protein kinase PAK 2 (Homo sapiens) (UniProt Q13177); further: assay method not described here
[6] = target: Serine/threonine-protein kinase 16 (Homo sapiens) (UniProt O75716); further: assay method not described here
[7] = target: Dihydropyrimidinase-related protein 3 (Homo sapiens) (UniProt Q14195); further: assay method not described here
[8] = target: Nck-associated protein 1-like (Homo sapiens) (UniProt P55160); further: assay method not described here
[9] = target: Cyclin-dependent kinase 7 (Homo sapiens) (UniProt P50613); further: assay method not described here
[10] = target: Tyrosine--tRNA ligase, cytoplasmic (Homo sapiens) (UniProt P54577); further: assay method not described here
[11] = target: 3-beta-hydroxysteroid-Delta(8),Delta(7)-isomerase (Homo sapiens) (UniProt Q15125); further: assay method not described here
[12] = target: Eukaryotic translation initiation factor 2A (Homo sapiens) (UniProt Q9BY44); further: assay method not described here
[13] = target: Ubiquitin-associated protein 2-like (Homo sapiens) (UniProt Q14157); further: assay method not described here
[14] = target: Ezrin (Homo sapiens) (UniProt P15311); further: assay method not described here
[15] = target: Histone acetyltransferase type B catalytic subunit (Homo sapiens) (UniProt O14929); further: assay method not described here
[16] = target: Glycine--tRNA ligase (Homo sapiens) (UniProt P41250); further: assay method not described here
[17] = target: Lon protease homolog, mitochondrial (Homo sapiens) (UniProt P36776); further: assay method not described here
[18] = target: ATP synthase F(0) complex subunit e, mitochondrial (Homo sapiens) (UniProt P56385); further: assay method not described here
[19] = target: Glutaryl-CoA dehydrogenase, mitochondrial (Homo sapiens) (UniProt Q92947); further: assay method not described here
[20] = target: HLA class I histocompatibility antigen, A alpha chain (Homo sapiens) (UniProt P04439); further: assay method not described here
[21] = target: NADH-ubiquinone oxidoreductase 75 kDa subunit, mitochondrial (Homo sapiens) (UniProt P28331); further: assay method not described here
[22] = target: Small ribosomal subunit protein eS21 (Homo sapiens) (UniProt P63220); further: assay method not described here
[23] = target: Mitogen-activated protein kinase kinase kinase 5 (Homo sapiens) (UniProt Q99683); further: assay method not described here
[24] = target: EKC/KEOPS complex subunit TP53RK (Homo sapiens) (UniProt Q96S44); further: assay method not described here
[25] = organism: Homo sapiens; further: assay method not described here
[26] = target: Crk-like protein (Homo sapiens) (UniProt P46109); further: assay method not described here
[27] = target: RNA cytosine C(5)-methyltransferase NSUN2 (Homo sapiens) (UniProt Q08J23); further: assay method not described here
[28] = target: Aurora kinase A (Homo sapiens) (UniProt O14965); further: assay method not described here
[29] = target: Serine/threonine-protein kinase Nek1 (Homo sapiens) (UniProt Q96PY6); further: assay method not described here
[30] = target: RNA cytidine acetyltransferase (Homo sapiens) (UniProt Q9H0A0); further: assay method not described here
[31] = target: Cyclin-H (Homo sapiens) (UniProt P51946); further: assay method not described here
[32] = target: Dual specificity mitogen-activated protein kinase kinase 3 (Homo sapiens) (UniProt P46734); further: assay method not described here
[33] = target: Neuronal migration protein doublecortin (Homo sapiens) (UniProt O43602); further: assay method not described here
[34] = target: NADH dehydrogenase [ubiquinone] 1 alpha subcomplex subunit 5 (Homo sapiens) (UniProt Q16718); further: assay method not described here
[35] = target: Sodium/potassium-transporting ATPase subunit beta-1 (Homo sapiens) (UniProt P05026); further: assay method not described here
[36] = target: NADH dehydrogenase [ubiquinone] 1 alpha subcomplex assembly factor 4 (Homo sapiens) (UniProt Q9P032); further: assay method not described here
[37] = target: Cytoskeleton-associated protein 4 (Homo sapiens) (UniProt Q07065); further: assay method not described here
[38] = target: Hepatoma-derived growth factor (Homo sapiens) (UniProt P51858); further: assay method not described here
[39] = target: Phosphatidylinositol 5-phosphate 4-kinase type-2 gamma (Homo sapiens) (UniProt Q8TBX8); further: assay method not described here
[40] = target: Ephrin type-A receptor 1 (Homo sapiens, UniProt P21709); test: Inhibition of Nano Luc-fused full length C-terminal EPHA1 (unknown origin) expressed in HEK293T cells using NanoGlo as substrate incubated for 2 hrs in presence of tracer by NanoBRET assay; format: cell-based
[41] = target: Tripeptidyl-peptidase 2 (Homo sapiens) (UniProt P29144); further: assay method not described here
[42] = target: Transport and Golgi organization protein 1 homolog (Homo sapiens) (UniProt Q5JRA6); further: assay method not described here
[43] = target: Small ribosomal subunit protein eS24 (Homo sapiens) (UniProt P62847); further: assay method not described here
[44] = target: Poly [ADP-ribose] polymerase 1 (Homo sapiens) (UniProt P09874); further: assay method not described here
[45] = target: Bone morphogenetic protein receptor type-1B (Homo sapiens) (UniProt O00238); further: assay method not described here

Sequence of Histone acetyltransferase type B catalytic subunit (Homo sapiens) (O14929 2-419 limits assumed): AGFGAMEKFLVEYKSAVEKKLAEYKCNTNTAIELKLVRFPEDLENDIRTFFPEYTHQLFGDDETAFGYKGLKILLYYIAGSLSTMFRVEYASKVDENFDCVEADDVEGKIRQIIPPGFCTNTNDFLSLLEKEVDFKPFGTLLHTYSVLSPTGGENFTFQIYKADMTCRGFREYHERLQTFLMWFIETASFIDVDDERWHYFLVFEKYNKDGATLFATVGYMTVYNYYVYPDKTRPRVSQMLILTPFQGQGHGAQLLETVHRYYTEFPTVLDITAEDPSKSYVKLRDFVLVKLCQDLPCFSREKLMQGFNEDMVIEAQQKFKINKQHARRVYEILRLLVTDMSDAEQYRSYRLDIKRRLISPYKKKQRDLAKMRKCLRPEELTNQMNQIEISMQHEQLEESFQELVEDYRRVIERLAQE
Sequence of Phosphatidylinositol 5-phosphate 4-kinase type-2 gamma (Homo sapiens) (Q8TBX8 whole entry, the tested form may be a part): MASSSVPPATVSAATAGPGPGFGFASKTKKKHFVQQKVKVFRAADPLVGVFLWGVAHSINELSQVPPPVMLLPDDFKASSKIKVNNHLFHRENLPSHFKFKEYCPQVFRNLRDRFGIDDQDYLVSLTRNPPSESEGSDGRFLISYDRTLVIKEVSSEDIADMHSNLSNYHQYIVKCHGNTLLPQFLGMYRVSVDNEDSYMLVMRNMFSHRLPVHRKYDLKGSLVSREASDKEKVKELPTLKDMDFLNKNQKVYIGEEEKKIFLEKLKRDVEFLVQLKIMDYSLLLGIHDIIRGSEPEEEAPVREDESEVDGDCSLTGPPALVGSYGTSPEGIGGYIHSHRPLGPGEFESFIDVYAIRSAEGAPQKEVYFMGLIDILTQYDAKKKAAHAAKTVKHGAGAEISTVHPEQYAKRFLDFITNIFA
Sequence of HLA class I histocompatibility antigen, A alpha chain (Homo sapiens) (P04439 whole entry): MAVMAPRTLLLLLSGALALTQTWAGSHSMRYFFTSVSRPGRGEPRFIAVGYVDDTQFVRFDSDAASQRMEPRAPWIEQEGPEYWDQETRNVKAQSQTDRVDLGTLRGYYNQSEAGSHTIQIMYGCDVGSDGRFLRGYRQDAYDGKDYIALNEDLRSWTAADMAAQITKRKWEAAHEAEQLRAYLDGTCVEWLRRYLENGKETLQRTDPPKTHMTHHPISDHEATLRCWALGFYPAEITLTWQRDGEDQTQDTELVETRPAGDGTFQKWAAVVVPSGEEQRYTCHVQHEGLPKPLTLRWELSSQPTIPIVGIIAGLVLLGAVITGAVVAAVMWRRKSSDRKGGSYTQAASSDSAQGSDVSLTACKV
Sequence of Cytoskeleton-associated protein 4 (Homo sapiens) (Q07065 whole entry): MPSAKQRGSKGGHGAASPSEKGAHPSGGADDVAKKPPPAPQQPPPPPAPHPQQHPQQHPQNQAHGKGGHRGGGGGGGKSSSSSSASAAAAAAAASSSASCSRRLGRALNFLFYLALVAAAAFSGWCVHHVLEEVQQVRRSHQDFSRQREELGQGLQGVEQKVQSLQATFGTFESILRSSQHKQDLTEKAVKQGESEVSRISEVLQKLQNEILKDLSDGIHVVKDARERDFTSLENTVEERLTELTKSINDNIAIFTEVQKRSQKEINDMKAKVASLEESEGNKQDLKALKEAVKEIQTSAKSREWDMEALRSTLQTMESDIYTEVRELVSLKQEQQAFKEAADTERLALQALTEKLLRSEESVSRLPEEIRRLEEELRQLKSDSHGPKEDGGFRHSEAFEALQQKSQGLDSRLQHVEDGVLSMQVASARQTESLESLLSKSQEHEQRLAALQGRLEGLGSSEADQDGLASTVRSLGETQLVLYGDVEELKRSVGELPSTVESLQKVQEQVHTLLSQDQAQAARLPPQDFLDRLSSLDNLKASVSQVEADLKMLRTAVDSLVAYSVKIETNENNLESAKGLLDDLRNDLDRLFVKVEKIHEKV
Sequence of Cyclin-H (Homo sapiens) (P51946 whole entry): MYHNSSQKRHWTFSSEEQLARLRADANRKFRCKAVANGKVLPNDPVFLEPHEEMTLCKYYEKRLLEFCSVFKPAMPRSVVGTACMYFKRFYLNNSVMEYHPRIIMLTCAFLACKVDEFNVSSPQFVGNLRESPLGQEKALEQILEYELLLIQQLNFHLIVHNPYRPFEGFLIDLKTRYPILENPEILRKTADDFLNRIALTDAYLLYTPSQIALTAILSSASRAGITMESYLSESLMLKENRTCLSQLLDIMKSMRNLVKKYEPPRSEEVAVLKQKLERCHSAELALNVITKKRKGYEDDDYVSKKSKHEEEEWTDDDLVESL
Sequence of Serine/threonine-protein kinase 16 (Homo sapiens) (O75716 whole entry): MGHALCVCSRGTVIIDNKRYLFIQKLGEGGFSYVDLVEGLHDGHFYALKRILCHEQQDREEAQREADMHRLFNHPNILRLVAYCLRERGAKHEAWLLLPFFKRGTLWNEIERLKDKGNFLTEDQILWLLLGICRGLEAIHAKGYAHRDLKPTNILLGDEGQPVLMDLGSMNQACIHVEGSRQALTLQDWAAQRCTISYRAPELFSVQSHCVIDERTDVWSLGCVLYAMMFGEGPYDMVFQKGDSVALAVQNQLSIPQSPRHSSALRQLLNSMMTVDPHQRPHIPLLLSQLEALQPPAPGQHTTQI
Sequence of Ephrin type-A receptor 1 (P21709 whole entry, the tested form may be a part): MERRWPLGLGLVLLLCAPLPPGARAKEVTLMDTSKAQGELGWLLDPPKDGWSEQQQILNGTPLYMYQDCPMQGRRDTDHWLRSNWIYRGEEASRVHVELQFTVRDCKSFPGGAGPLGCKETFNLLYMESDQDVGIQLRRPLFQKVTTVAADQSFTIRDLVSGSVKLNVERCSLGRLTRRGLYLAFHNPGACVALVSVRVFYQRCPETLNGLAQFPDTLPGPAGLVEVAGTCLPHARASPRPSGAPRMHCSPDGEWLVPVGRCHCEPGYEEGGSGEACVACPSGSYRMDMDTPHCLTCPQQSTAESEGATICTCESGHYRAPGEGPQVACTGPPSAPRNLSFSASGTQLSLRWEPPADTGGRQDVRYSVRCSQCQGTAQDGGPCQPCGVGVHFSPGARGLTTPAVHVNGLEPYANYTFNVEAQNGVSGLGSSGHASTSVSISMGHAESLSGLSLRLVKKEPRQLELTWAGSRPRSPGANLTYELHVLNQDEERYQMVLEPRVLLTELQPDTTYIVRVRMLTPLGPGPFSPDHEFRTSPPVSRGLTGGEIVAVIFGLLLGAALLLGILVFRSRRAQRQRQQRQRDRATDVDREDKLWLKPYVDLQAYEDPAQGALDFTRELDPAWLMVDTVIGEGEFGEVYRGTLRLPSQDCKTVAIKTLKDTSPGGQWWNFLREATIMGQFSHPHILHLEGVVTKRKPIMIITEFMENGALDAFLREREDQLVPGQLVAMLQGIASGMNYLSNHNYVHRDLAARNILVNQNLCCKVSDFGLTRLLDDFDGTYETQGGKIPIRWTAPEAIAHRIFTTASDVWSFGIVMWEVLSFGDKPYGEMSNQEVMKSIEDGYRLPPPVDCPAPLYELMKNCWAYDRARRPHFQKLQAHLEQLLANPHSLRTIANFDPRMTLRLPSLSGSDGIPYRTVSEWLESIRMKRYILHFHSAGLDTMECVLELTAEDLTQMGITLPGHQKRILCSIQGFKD
Sequence of Nck-associated protein 1-like (Homo sapiens) (P55160 whole entry): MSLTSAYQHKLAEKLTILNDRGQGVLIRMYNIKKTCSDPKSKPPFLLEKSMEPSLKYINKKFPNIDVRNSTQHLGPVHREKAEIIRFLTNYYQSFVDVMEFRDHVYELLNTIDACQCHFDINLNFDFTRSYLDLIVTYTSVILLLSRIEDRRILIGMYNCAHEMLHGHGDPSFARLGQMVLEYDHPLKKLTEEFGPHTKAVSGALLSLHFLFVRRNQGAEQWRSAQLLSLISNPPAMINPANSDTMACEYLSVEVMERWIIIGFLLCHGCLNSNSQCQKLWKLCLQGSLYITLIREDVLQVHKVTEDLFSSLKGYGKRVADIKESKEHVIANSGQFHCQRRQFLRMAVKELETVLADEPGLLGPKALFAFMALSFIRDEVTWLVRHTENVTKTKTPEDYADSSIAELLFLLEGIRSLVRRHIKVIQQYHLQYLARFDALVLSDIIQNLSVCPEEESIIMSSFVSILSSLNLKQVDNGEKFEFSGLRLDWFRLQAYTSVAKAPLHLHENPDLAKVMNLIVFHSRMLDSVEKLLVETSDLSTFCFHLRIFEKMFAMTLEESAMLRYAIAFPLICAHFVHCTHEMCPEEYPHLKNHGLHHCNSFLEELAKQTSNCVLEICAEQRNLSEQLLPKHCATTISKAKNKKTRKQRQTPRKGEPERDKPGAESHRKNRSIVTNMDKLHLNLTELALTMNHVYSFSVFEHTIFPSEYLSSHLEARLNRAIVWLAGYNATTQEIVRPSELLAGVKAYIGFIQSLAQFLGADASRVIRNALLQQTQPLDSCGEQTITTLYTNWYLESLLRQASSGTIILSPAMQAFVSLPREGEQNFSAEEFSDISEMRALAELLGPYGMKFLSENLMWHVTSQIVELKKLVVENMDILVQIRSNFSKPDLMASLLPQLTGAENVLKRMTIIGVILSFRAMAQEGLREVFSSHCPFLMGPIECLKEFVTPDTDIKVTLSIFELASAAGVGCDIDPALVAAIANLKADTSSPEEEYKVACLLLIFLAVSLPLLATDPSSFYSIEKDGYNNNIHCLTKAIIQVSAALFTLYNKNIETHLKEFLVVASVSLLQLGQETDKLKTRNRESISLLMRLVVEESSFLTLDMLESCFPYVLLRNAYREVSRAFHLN
Sequence of Glutaryl-CoA dehydrogenase, mitochondrial (Homo sapiens) (Q92947 whole entry): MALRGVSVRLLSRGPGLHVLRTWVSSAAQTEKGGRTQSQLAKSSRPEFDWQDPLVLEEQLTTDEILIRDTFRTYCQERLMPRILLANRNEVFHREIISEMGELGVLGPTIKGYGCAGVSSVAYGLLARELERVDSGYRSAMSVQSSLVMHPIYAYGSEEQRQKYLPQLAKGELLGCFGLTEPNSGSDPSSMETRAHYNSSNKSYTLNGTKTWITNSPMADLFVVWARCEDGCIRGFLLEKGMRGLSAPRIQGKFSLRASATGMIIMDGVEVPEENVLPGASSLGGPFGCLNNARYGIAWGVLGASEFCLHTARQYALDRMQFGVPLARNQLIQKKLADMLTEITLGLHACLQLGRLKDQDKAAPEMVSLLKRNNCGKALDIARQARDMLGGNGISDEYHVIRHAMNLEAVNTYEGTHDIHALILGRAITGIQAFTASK

Cc1ccc(C(=O)Nc2cccc(C(F)(F)F)c2)cc1Nc1nc(-c2cccnc2)nc2nn(C)cc12
ED50 [1]: 11.4 µM | ED50 [2]: 21.8 µM | ED50 [3]: 0.0621 µM | ED50 [4]: 0.00986 µM | ED50 [5]: 42.5 µM | ED50 [6]: 0.0232 µM | ED50 [7]: 0.639 µM | ED50 [8]: 1530 µM | ED50 [9]: 0.0647 µM | ED50 [10]: 0.0572 µM | ED50 [11]: 0.0123 µM | ED50 [12]: 0.0386 µM | ED50 [13]: 14.3 µM | ED50 [14]: 0.0827 µM | ED50 [15]: 0.0527 µM | ED50 [16]: 17.6 µM | ED50 [17]: 0.0644 µM | ED50 [18]: 0.531 µM | ED50 [19]: 0.169 µM | ED50 [20]: 0.0554 µM | ED50 [21]: 0.959 µM | ED50 [22]: 0.00683 µM | ED50 [23]: 0.125 µM | ED50 [24]: 0.485 µM | ED50 [25]: 0.0747 µM | ED50 [26]: 10.2 µM | ED50 [27]: 0.000187 µM | ED50 [28]: 9.32 µM | ED50 [29]: 0.000912 µM | ED50 [30]: 0.235 µM | ED50 [31]: 13.2 µM | ED50 [32]: 2770 µM | ED50 [33]: 9.4 µM | ED50 [34]: 0.253 µM | ED50 [35]: 0.0335 µM | ED50 [36]: 1.82 µM | ED50 [37]: 0.174 µM | ED50 [38]: 12.4 µM | ED50 [39]: 0.0058 µM | IC50 [40]: 16.8 µM | ED50 [41]: 0.487 µM | ED50 [42]: 120 µM | ED50 [43]: 0.314 µM | ED50 [44]: 0.083 µM | ED50 [45]: 60.4 µM

Cc1ccc(C(=O)Nc2cccc(C(F)(F)F)c2)cc1Nc1nc(-c2cccnc2)nc2c1cnn2C
ED50 [1]: 20.2 µM | ED50 [2]: 0.199 µM | ED50 [3]: 1.7 µM | ED50 [4]: 1.12 µM | ED50 [5]: 19.6 µM | ED50 [6]: 0.13 µM | ED50 [7]: 0.379 µM | ED50 [8]: 41.5 µM | ED50 [9]: 0.0338 µM | ED50 [10]: 0.157 µM | ED50 [11]: 0.0148 µM | ED50 [12]: 25.7 µM | ED50 [13]: 13.3 µM | ED50 [14]: 7.29 µM | ED50 [15]: 0.183 µM | ED50 [16]: 0.0374 µM | ED50 [17]: 0.575 µM | ED50 [18]: 20 µM | ED50 [19]: 7.4 µM | ED50 [20]: 19000 µM | ED50 [21]: 0.765 µM | ED50 [22]: 60 µM | ED50 [23]: 0.121 µM | ED50 [24]: 3.47 µM | ED50 [25]: 2.74 µM | ED50 [26]: 0.0843 µM | ED50 [27]: 48.7 µM | ED50 [28]: 6.29 µM | ED50 [29]: 1.87 µM | ED50 [30]: 0.000302 µM | ED50 [31]: 0.0553 µM | ED50 [32]: 0.00369 µM | ED50 [33]: 0.536 µM | ED50 [34]: 5.05 µM | ED50 [35]: 0.0536 µM | ED50 [36]: 0.0015 µM | ED50 [37]: 0.00547 µM | ED50 [38]: 0.0049 µM | ED50 [39]: 0.29 µM | IC50 [40]: 0.303 µM | ED50 [41]: 53.8 µM | ED50 [42]: 3.64 µM | ED50 [43]: 0.357 µM | ED50 [44]: 7.11 µM | ED50 [45]: 6290 µM

Reference: ChEMBL document CHEMBL5649169 (ChemMedChem, 2018)
